Experimental data: patent publication US20100004267A1, “LIQUID PREPARATION” (ASUBIO PHARMA CO., LTD., priority 2006, published 2010)

Experiment: Reduction in surface activity in SUN N8075 aqueous solution (Test example 7)
Assay type: physicochemical
Parameters: key to Appearance after shaking / Appearance after standing: A: Clear; B+: Almost clear; B: Much less insoluble matters than Control; Clearly less insoluble matter than Control; D: Comparable amount of insoluble matters with Control; E: More insoluble matters than Control; key to General judgment: A: Great effect; B+: Large effect; B: Effective; C: Effective but very small; D: Comparable to Control (No effect); E: Inferior to Control (clouded); key to Foaming property: A: Much less foaming than Control; B: Clearly less foaming than Control; Slightly less foaming than Control; D: Comparable to Control; E: More foaming than Control
Method: Into each test compound solution which was prepared in advance to achieve each adding concentration shown in the Table, SUN N8075 was added and dissolved so that the concentration thereof was 5 mg/mL, and the pH value was adjusted to 3 to 4 as appropriate by hydrochloric acid to prepare a sample solution.
Each 10 mL of sample solution was put into a 10-mL stoppered test tube, and shaken 30 strokes vertically by hand and allowed to stand upright, and under room diffused light, appearance of sample solution after shaking, foaming property (foaming quantity), defoaming time, post standing observation (after standing for 3 days or more) were evaluated.
As a control, an aqueous solution containing no test substance but containing 5 mg/mL of SUN N8075 was examined in a similar manner.

[1] = Control: 5 mg/mL SUN N8075 aqueous solution, no test substance

Which results are given for `Cc1cc(OC[C@@H](O)CN2CCN(c3ccc(Cc4ccc(F)cc4)cc3)CC2)c(C)c(C)c1N` [SUN N8075, (2S)-1-(4-amino-2,3,5-trimethylphenoxy)-3-{4-[4-(4-fluorobenzyl)phenyl]-1-piperazinyl}-2-propanol dimethane sulfonate]?
Appearance after shaking (Captisol 10.00%): A; Appearance after standing (Captisol 10.00%): A; Defoaming time (Captisol 10.00%): A (In 20 minutes); Foaming property (Captisol 10.00%): A; General judgment (Captisol 10.00%): A; Appearance after shaking (Chlorobutanol 0.10%): D; Appearance after standing (Chlorobutanol 0.10%): D; Foaming property (Chlorobutanol 0.10%): C; General judgment (Chlorobutanol 0.10%): D; Appearance after shaking (Chlorobutanol 0.50%): B; Appearance after standing (Chlorobutanol 0.50%): A; Foaming property (Chlorobutanol 0.50%): B; General judgment (Chlorobutanol 0.50%): B+; Appearance after shaking (Chlorobutanol […]): C; Appearance after standing (Chlorobutanol […]): A; Foaming property (Chlorobutanol […]): C; General judgment (Chlorobutanol […]): B; Appearance after shaking/Appearance after standing [1]: Large amount of insoluble matters in wall face and appearance in Control; Foaming property [1]: Very high foaming property in Control; Defoaming time (Control: 5 mg/mL SUN N8075 aqueous solution, no test substance, standing): Not defoamed after standing for 1 week in Control; Appearance after shaking (Ethanol 1.00%): B; Appearance after standing (Ethanol 1.00%): B; Foaming property (Ethanol 1.00%): C; General judgment (Ethanol 1.00%): B; Appearance after shaking (Ethanol 5.00%): D; Appearance after standing (Ethanol 5.00%): E; Foaming property (Ethanol 5.00%): D; General judgment (Ethanol 5.00%): D; Appearance after shaking (Ethanol 10.00%): D; Appearance after standing (Ethanol 10.00%): E; Foaming property (Ethanol 10.00%): D; General judgment (Ethanol 10.00%): D; Appearance after shaking (Ethanol […]): B; Appearance after standing (Ethanol […]): C; Foaming property (Ethanol […]): D; General judgment (Ethanol […]): C; Appearance after shaking (Glycine 100 mM): B; Appearance after standing (Glycine 100 mM): B; Foaming property (Glycine 100 mM): B; General judgment (Glycine 100 mM): B; Appearance after shaking (L-Arginine 30 mM): B+; Appearance after standing (L-Arginine 30 mM): B+; Defoaming time (L-Arginine 30 mM): B (In 60 minutes); Foaming property (L-Arginine 30 mM): B; General judgment (L-Arginine 30 mM): B+; Appearance after shaking (L-Arginine 60 mM): A; Appearance after standing (L-Arginine 60 mM): A; Defoaming time (L-Arginine 60 mM): A (In 20 minutes); Foaming property (L-Arginine 60 mM): A; General judgment (L-Arginine 60 mM): A; Appearance after shaking (L-Histidine 60 mM): A; Appearance after standing (L-Histidine 60 mM): A; Defoaming time (L-Histidine 60 mM): A (In 20 minutes); Foaming property (L-Histidine 60 mM): A; General judgment (L-Histidine 60 mM): A; Appearance after shaking (Meglumine 25 mM): C; Appearance after standing (Meglumine 25 mM): C; Foaming property (Meglumine 25 mM): D; General judgment (Meglumine 25 mM): C; Appearance after shaking (Meglumine 50 mM): A; Appearance after standing (Meglumine 50 mM): A; Defoaming time (Meglumine 50 mM): B (In 60 minutes); Foaming property (Meglumine 50 mM): C; General judgment (Meglumine 50 mM): B; Appearance after shaking (Meglumine 75 mM): A; Appearance after standing (Meglumine 75 mM): A; Defoaming time (Meglumine 75 mM): B (In 60 minutes); Foaming property (Meglumine 75 mM): B; General judgment (Meglumine 75 mM): A; Appearance after shaking (Meglumine 100 mM): A; Appearance after standing (Meglumine 100 mM): A; Defoaming time (Meglumine 100 mM): A (In 20 minutes); Foaming property (Meglumine 100 mM): C; General judgment (Meglumine 100 mM): A; Appearance after shaking (Methane sulfonic acid 15 mM): D; Appearance after standing (Methane sulfonic acid 15 mM): D; Foaming property (Methane sulfonic acid 15 mM): B; General judgment (Methane sulfonic acid 15 mM): D; Appearance after shaking (Propylene glycol 1.00%): B; Appearance after standing (Propylene glycol 1.00%): A; Foaming property (Propylene glycol 1.00%): B; General judgment (Propylene glycol 1.00%): B+; Appearance after shaking (Propylene glycol 5.00%): B; Appearance after standing (Propylene glycol 5.00%): D; Foaming property (Propylene glycol 5.00%): D; General judgment (Propylene glycol 5.00%): D; Appearance after shaking (Propylene glycol 10.00%): C; Appearance after standing (Propylene glycol 10.00%): D; Foaming property (Propylene glycol 10.00%): D; General judgment (Propylene glycol 10.00%): D; Appearance after shaking (Propylene glycol […]): C; Appearance after standing (Propylene glycol […]): D; Foaming property (Propylene glycol […]): D; General judgment (Propylene glycol […]): D; Appearance after shaking (Sodium L-glutamate 30 mM): B+; Appearance after standing (Sodium L-glutamate 30 mM): B+; Foaming property (Sodium L-glutamate 30 mM): B+; General judgment (Sodium L-glutamate 30 mM): B+; Appearance after shaking (Sodium L-glutamate 60 mM): A; Appearance after standing (Sodium L-glutamate 60 mM): A; Defoaming time (Sodium L-glutamate 60 mM): A (In 20 minutes); Foaming property (Sodium L-glutamate 60 mM): B+; General judgment (Sodium L-glutamate 60 mM): A; Appearance after shaking (Sodium chloride 25 mM): D; Appearance after standing (Sodium chloride 25 mM): D; Foaming property (Sodium chloride 25 mM): B; General judgment (Sodium chloride 25 mM): D; Appearance after shaking (Sodium chloride 50 mM): B; Appearance after standing (Sodium chloride 50 mM): B; Foaming property (Sodium chloride 50 mM): A; General judgment (Sodium chloride 50 mM): C; Appearance after shaking (Sodium chloride 75 mM): A; Appearance after standing (Sodium chloride 75 mM): A; Defoaming time (Sodium chloride 75 mM): A (In 20 minutes); Foaming property (Sodium chloride 75 mM): B+; General judgment (Sodium chloride 75 mM): A; Appearance after shaking (Sodium chloride 100 mM): A; Appearance after standing (Sodium chloride 100 mM): A; Defoaming time (Sodium chloride 100 mM): A (In 20 minutes); Foaming property (Sodium chloride 100 mM): B; General judgment (Sodium chloride 100 mM): A
